Experimental findings from patent US20210317090A1, “AMINO ACID DEPLETION AGENTS AS ANTIPROLIFERATIVE AGENTS” (University of Central Florida Research Foundation, Inc., priority 2018, published 2021) are described below.

A word on the IC50: it is the concentration that inhibits the measured activity by half. As a reminder, the EC50 is the concentration giving half of the maximal effect.

One assay concerns CHO-MG cells. The assay can be described thus: Cytotoxicity IC50 (MTS) in polyamine-transport-deficient CHO-MG cells. The format is cell-based, Chinese hamster. Particulars: Cricetulus griseus, 48 h. The protocol:
(§1) Regarding the biological studies performed in the following examples, it is noted that CHO K1, CHO-MG, and L3.6pl cells were grown in RPMI 1640 medium supplemented with 10% fetal bovine serum (FBS) and 1% penicillin/streptomycin. All cells were grown at 37° C. under a humidified 5% CO2 atmosphere. Aminoguanidine (1 mM used for CHO K1 and CHOMG cells and 250 μM for L3.6pl) was added to the growth medium to prevent oxidation of the compounds of the bovine serum amine oxidase enzyme that is present in calf serum. The cells used were in early to mid log phase and CHO and CHOMG were plated out at 1000 cells/well, whereas the L3.6pl cells were plated at 500 cells/well in a 96 well plate format.
This example illustrates aspects according to various embodiments pertaining to IC50 determinations and cell viability studies. Cell growth was assayed in sterile 96-well microtiter plates (Costar 3599, Corning, N.Y.). CHO K1 or CHOMG cells were plated at 1,000 cells/70 μL and L3.6pl cells at 500 cells/70 μL. […] After drug exposure (e.g., for 48 h for CHO K1 and CHO-MG and 48 h or 72 h for L3.6pl), cell growth was determined by measuring formazan formation from the 3-(4,5dimethylthiazol-2-yl)-5-(3-carboxymethoxyphenyl)-2-(4-sulfenyl)-2H tetrazolium, inner salt (MTS) using SynergyMx Biotek microplate reader for absorbance (490 nm) measurements.^27 All experiments were run in triplicate.

Assay [1] deals with L3.6pl human pancreatic cancer cells. Kind of assay: Cytotoxicity dose-response (MTS) in L3.6pl cells. The format is cell-based. Particulars: for IC50: Homo sapiens, L3.6pl cells. The procedure:
L3.6pl Studies. Compounds 9 and 10 were evaluated in the metastatic human pancreatic cancer cell line, L3.6pl. L3.6pl has a K-ras mutation, and high polyamine uptake activity.^7 A dose-response curve was obtained for each compound in L3.6pl cells to determine the 72 h L3.6pl IC50 value, described as the dose at which L3.6pl cells were 50% viable compared to the untreated control.
as §1
This example illustrates aspects according to various embodiments pertaining to IC50 determinations and cell viability studies. Cell growth was assayed in sterile 96-well microtiter plates (Costar 3599, Corning, N.Y.). CHO K1 or CHOMG cells were plated at 1,000 cells/70 μL and L3.6pl cells at 500 cells/70 μL. The drug solutions of appropriate concentration in phosphate buffered saline (PBS) were added 10 μL per well after overnight incubation. After drug exposure (e.g., for 48 h for CHO K1 and CHO-MG and 48 h or 72 h for L3.6pl), cell growth was determined by measuring formazan formation from the 3-(4,5dimethylthiazol-2-yl)-5-(3-carboxymethoxyphenyl)-2-(4-sulfenyl)-2H tetrazolium, inner salt (MTS) using SynergyMx Biotek microplate reader for absorbance (490 nm) measurements.^27 All experiments were run in triplicate.

The next assay relates to CHO K1 cells. Kind of assay: cells. Conditions: for EC50: Cricetulus griseus, Ant-44 0.5 μM. The format is cell-based, Chinese hamster. The protocol: Various embodiments involve the concept that a non-toxic PTI agent would inhibit the uptake of the cytotoxic polyamine conjugate Ant-44 (11) and rescue cells from Ant-44 induced toxicity. For example, using the IC50 dose of Ant-44, PTIs could be identified by measuring a compound's ability to block Ant-44 entry and rescue cells back to >90% viability. […] This toxic dose of Ant-44 was kept constant throughout the assay, while the candidate PTI compound was added in increasing concentrations up to its MTD.
Compounds (9 and 10) were tested at 5 μM and 7 μM. CHO K1 cells were treated in a 96-well plate with a toxic dose of Ant-44 (2.4 μM) alone and dosed with the candidate compounds (at 5 μM and 7 μM) and incubated for 48 h at 37° C.
To further explore this effect, development of various embodiments included modifying an original screen to use a lower dose of Ant-44 (0.5 μM) to improve the dose range of 9 and 10 that could be tested. In this regard, Ant-44 was dosed at 0.5 μM alone and in combination with increasing doses of compounds 9 (1666.177) and 10 (1666.255) and the CHO K1 cells were incubated for 48 h at 37° C., and the results are shown in FIG. 5. The red line represents the % cell viability of the Ant-44 only control. The Ant44 potentiation assay EC50 value is defined as the concentration of the candidate compound required to decrease the cell viability to half that of the Ant-44 only control. Both compounds 9 and 10 were effective at decreasing cell viability, when used in combination with Ant-44 in a dose dependent fashion.
FIG. 5 is an example according to various embodiments, illustrating potentiation of Ant-44 toxicity by compounds 9 and 10 in CHO K1 cells. Cells were incubated for 48 h at 37° C. with the respective compound and a fixed concentration of cytotoxic Ant-44 (0.5 μM). A 1 mM AG solution was incubated with the CHO K1 cells for 24 h prior to the addition of candidate compound. This was necessary to protect Ant-44 from the amine oxidases present in the media containing fetal bovine serum. […] Both compounds are nontoxic at the highest concentration tested (5 μM).

In a further assay the test system is L3.6pl cells. The assay can be described thus: Ant-44 toxicity potentiation assay in L3.6pl cells. The format is cell-based, human. The protocol: As performed previously with CHO K1 cells, L3.6pl cells were treated with compounds 9 (1666.177) and 10 (1666.255) and a fixed dose of Ant-44 to observe the potentiation effect. The 72 h IC50 dose of Ant-44 in L3.6pl cells was previously determined to be 4 μM. For this study, half that dose was used to replicate the large window used in the CHO experiments to look at reduction in cell viability. In a 96-well plate, L3.6pl cells were dosed with a fixed concentration of Ant-44 (2 μM) and increasing doses of compounds 9 (1666.177) and 10 (1666.255). Although both compounds were effective at reducing cell viability, higher doses were required compared to CHO K1 cells.
FIG. 6 is an example according to various embodiments, illustrating the ability of compounds 9 (1666.177) and 10 ([…]) to potentiate the effect of Ant-44 in L3.6pl cells. Cells were incubated for 72 h at 37° C. with the respective compound and Ant-44 (2 μM). A 250 μM AG solution was incubated with the cells for 24 h prior to addition of compounds. […] Both compounds are nontoxic at the second highest concentration tested (1 μM).

Where two headings read alike, the source gives them in different places.

For `CC(C)CCN1CCN(C(CNCc2ccccc2)CC2CCCCC2)CC1CC(C)C.Cl.Cl.Cl` (stereo not shown) [Compound 10, Benzyl-{3-cyclohexyl-2-[3-isobutyl-4-(3-methyl-butyl)-piperazin-1-yl]-propyl}-amine trihydrochloride salt], the IC50 came to 8930 ± 750 nM with CHO-MG cells; 3480 ± 300 nM in assay [1] (48 h, read-out: 48 h IC50); 5900 ± 200 nM in assay [1] (72 h, read-out: 72 h IC50). Further, in assay [1] (L3.6pl, second highest concentration tested (1 μM), 72 h), the “toxicity of compound alone” value is listed as “nontoxic”. Also, the “toxicity to L3.6pl cancer cells relative to CHO K1 and CHO-MG cell lines” value in assay [1] (from 48 h IC50 values) is reported as “approximately three fold more toxic”. Also, in the assay with CHO K1 cells (CHO K1 cells), the “times more effective at potentiating Ant-44 than compound 9” value is recorded as “approximately 12.5 times”. Besides, the EC50 in the assay with CHO K1 cells (CHO K1 cells, 48 h (FIG. 5), read-out: Ant-44 potentiation EC50) came out at 60 nM; with CHO K1 cells (CHO cells, 48 h, read-out: Ant44 potentiation assay EC50) it was 60 nM; with L3.6pl cells (Homo sapiens, Ant-44 2 μM, 72 h), 290 ± 100 nM. In the assay with L3.6pl cells, the “effectiveness at increasing the potency of Ant-44 relative to compound 9” value is recorded as “approximately eleven times more effective”.
